What was measured:
SK-HEP1 HCC cells = assay: MTT-based cell proliferation assay, SK-HEP1; set-up: species or system human
Description: (§1) Human HCC cells SK-HEP1 and QGY; breast cancer cells HCC1954, BT474, and MDA-MB468; ovarian cancer cells SKOV3; and prostate cancer cells PC3 and LNCaP were purchased from the Cell Bank of Chinese Academy of Sciences (Shanghai, China), and cultured in T75 flasks with complete DMEM or RPMI 1640 medium (GIBCO, Invitrogen, Gaithersburg, CA, United States) supplemented with 10% FBS (Hyclone, New Zealand), and 1% penicillin/streptomycin (Solarbio, Beijing, China) at 37°C in a humidified atmosphere containing 5% CO2.
(§2) Cell proliferation was determined using methylthiazolyl diphenyl-tetrazolium bromide assay (MTT; Sigma–Aldrich). The cells were seeded onto 96-well plates in a total volume of 150 μl at a density of 3.5 × 10^4 cells/well. […] To avoid the effect of the solvent, the concentration of DMSO was less than 0.1% (v/v) in all experiments. After incubation at 37°C for 48 h, 10 μl of MTT solution (5 mg/ml) was added and continued to incubate for 4 h. Following removal of medium containing MTT, 200 μl of DMSO was added to dissolve the formazan crystals formed by live cells. Solution absorbance was measured at 490 nm with an absorbance microplate reader (BioTek, Winooski, VT, United States). The assay was repeated six times. The IC50 value was determined from plot of % viability against the dose of compounds added.

QGY HCC cells = assay: MTT-based cell proliferation assay, QGY; set-up: species or system human
Description: as §1, §2

CyPJ = target: T1, CyPJ (Homo sapiens, UniProt Q9H2H8); assay: Surface plasmon resonance (SPR) binding assay; conditions: Biacore 3000, recombinant human CyPJ immobilized on CM5 chip, 20°C, compounds 0.3–10 μM
T1 construct: made in house
T1 sequence (Q9H2H8 1-161): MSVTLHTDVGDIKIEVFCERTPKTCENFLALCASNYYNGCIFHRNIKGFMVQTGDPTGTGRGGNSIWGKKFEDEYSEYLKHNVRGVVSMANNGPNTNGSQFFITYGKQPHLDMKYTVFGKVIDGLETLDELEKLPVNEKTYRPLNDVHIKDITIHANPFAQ
Description: The binding affinity of the selected compounds to CyPJ was measured by SPR with a Biacore 3000 instrument (Biacore AB Corporation, Uppsala, Sweden) as previously described ([Guo et al., 2005]; [Chen et al., 2007]). Briefly, recombinant human CyPJ protein was immobilized on an activated sensor chip via amine coupling. CyPJ protein (10 μM) was coupled to a CM5 sensor chip surface (a carboxymethylated dextran surface; CM5 chip from Biacore, Inc., Piscataway, NJ, United States) in a buffer containing 10 mM sodium acetate (pH 4.0) using standard amine coupling chemistry according to the manufacturer’s instructions. Flow cell 1 (FC-1) was used as the control surface and flow cell 2 (FC-2) contained 9000 resonance units (RU) of CyPJ (1 RU corresponds to 1 pg of protein per mm^2). The buffer stream was passed through FC-1 and FC-2 of the bi-channel at a flow rate of 40 μl/min. Compounds to be tested were purchased from SPECS (Netherlands). All chemicals were of the highest purity available, as certified by the vendor. All compounds were stocked in 100% dimethylsulfoxide at 10 mM and diluted at graded concentrations (0.3–10 μM) with HBS-EP buffer (0.01 M HEPES buffer, pH 7.4, containing 0.15 M NaCl, 3.4 mM EDTA, and 0.005% surfactant P20) containing 1% dimethylsulfoxide. The temperature of the instrument was set to 20°C, and the flow rate was set to 40 μl/min. Each compound (50 μl) was injected sequentially. NaOH (50 mM) was used to regenerate the surface of the CM5 chip. The 1:1 Langmuir binding model was used to determine the equilibrium dissociation constant (KD). For fast interactions, the steady-state model was used to determine KD values. All experiments were carried out in triplicate.

CyPJ PPIase = target: T2, CyPJ PPIase (Homo sapiens, UniProt Q9H2H8); assay: α-chymotrypsin-coupled PPIase assay; format: biochemical; conditions: for IC50: read-out: Compound IC50 for PPIase; for Compound IC50 for PPIase: CyPJ PPIase, substrate Suc-AAPF-pNA, 8°C, – = no inhibition detectable
T2 construct: made in house
T2 sequence (Q9H2H8 1-161): T1 sequence (Q9H2H8 1-161)
Description: We used an α-chymotrypsin-coupled PPIase assay, where the substrate succinyl-Ala-Ala-Pro-Phe-p-nitroanilide (Suc-AAPF-pNA) is first converted to the trans conformation by PPIase, and can then be digested by α-chymotrypsin to release chromogenic p-nitroanilide; the latter compound is then monitored with a spectrometer. Briefly, the assay was performed under 8°C in a 100 μl system. The Suc-AAPF-pNA was dissolved in the […] containing 480 mM of LiCl (working concentration: 3.0 mM). The α-chymotrypsin was dissolved in 1 mM HCl (working concentration: […]). When assayed, each test compound was diluted in 94 μl of assay buffer (50 mM HEPES, 100 mM NaCl; pH 8.0 at 0°C), and then mixed with 2 μl of CyPJ solution (5 μM). […] Three independent experiments were performed for each test compound and the respective half maximal inhibitory concentration (IC50) was calculated with OriginPro 7.5 software (OriginLab, Northampton, MA, United States).
The inhibitory effect of each compounds was determined with a standard spectrophotometric method in chymotrypsin-coupled assays with different concentrations of peptide substrate. The rate constants for the cis–trans conversion were evaluated by fitting the data to the integrated first-order rate equation through nonlinear least-square analysis.

[1] = Blood serum level after intraperitoneal administration; format: in vivo; conditions: blood serum (unpublished data)
[2] = tested on: xenograft mouse tumor model; assay: In vivo xenograft mouse tumor model; conditions: xenograft mouse tumor model (unpublished data)
[3] = tested on: HCC1954 breast cancer cells; assay: Growth inhibition, HCC1954; format: cell-based, human
Description: as §1, §2

[4] = tested on: LNCaP prostate cancer cells; assay: Growth inhibition, LNCaP; format: cell-based, human
Description: as §1, §2

[5] = tested on: BT474 breast cancer cells; assay: Growth inhibition, BT474; format: cell-based, human
Description: as §1, §2

[6] = tested on: SKOV3 ovarian cancer cells; assay: Growth inhibition, SKOV3; format: cell-based, human
Description: as §1, §2

[7] = tested on: PC3 prostate cancer cells; assay: Growth inhibition, PC3; format: cell-based, human
Description: as §1, §2

[8] = tested on: MDA-MB-468 breast cancer cells; assay: Growth inhibition, MDA-MB-468; format: cell-based, human
Description: as §1, §2

[9] = Homo sapiens, SK-HEP1, Table 2, 48 h
[10] = Table 4, ZX-J-19 derivatives, 48 h

Row | Compound | Kd (CyPJ) [µM] | IC50 (SK-HEP1 HCC cells; [10]) [µM] | IC50 (QGY HCC cells; [10]) [µM] | also measured
1 | O=c1[nH]cc(F)c(=O)[nH]1 [Compound 5-FU, 5-fluorouracil, reference compound] |  |  |  | IC50 (SK-HEP1 HCC cells; [9]): 177.24 ± 0.065 µM; IC50 (QGY HCC cells; Homo sapiens, Table 2, 48 h): 238.53 ± 0.035 µM
2 | C/C(=N/NC(=O)c1ccc(COc2ccc3c(c2)CCC3)o1)c1ccc(NC(=O)C2CCCC2)cc1 [ZX-J-11] | 0.0988 |  |  | IC50 (CyPJ PPIase): 19.95 ± 0.025 µM
3 | CCCOC(=O)c1ccc(N2C(=O)c3ccc(C(=O)OC(C)C(=O)c4ccc(C)cc4)cc3C2=O)cc1 (stereo not shown) [ZX-J-16] | 3.41 |  |  | IC50 (CyPJ PPIase): 18.5 ± 0.727 µM
4 | COc1cc(/C=N/NC(=O)c2cc3c(ccc4ccccc43)o2)ccc1OCc1ccccc1F [ZX-J-17] | 0.0435 |  |  | Compound IC50 for PPIase (CyPJ PPIase): no inhibition
5 | CN(C)C(=O)Nc1ccc2nc(-c3ccco3)c(-c3ccco3)nc2c1 [ZX-J-19] | 16.7 |  |  | time until absorbed and accumulated in blood serum [1]: ≤ 10 min; time until declined and diminished to control levels [1]: 8 h; IC50 (SK-HEP1 HCC cells; [9]): 40.44 ± 0.033 µM; IC50 (CyPJ PPIase): 15.949 ± 0.012 µM; IC50 (QGY HCC cells; Homo sapiens, Table 2, 48 h): 52.438 ± 0.019 µM; antitumor activity in vivo [2]: poor antitumor activity
6 | CC(C)(C)C(=O)Nc1ccc2nc(-c3ccccc3)c(-c3ccccc3)nc2c1 [ZX-J-19b] |  | 21.6 | 26 | 
7 | O=C(Nc1ccc2nc(-c3ccccc3)c(-c3ccccc3)nc2c1)c1ccc(Cl)cc1 [ZX-J-19g] |  | 9.89 | 11.3 | 
8 | O=C(Nc1ccc2nc(-c3ccccc3)c(-c3ccccc3)nc2c1)c1ccccc1 [ZX-J-19h] |  | 40.3 | 27.5 | 
9 | CCCCCCCC(=O)Nc1ccc2nc(-c3ccccc3)c(-c3ccccc3)nc2c1 [ZX-J-19j, N-(2,3-diphenylquinoxalin-6-yl)octanamide] |  |  |  | inhibition at 20 µM ([3]; Homo sapiens): 64.2%; inhibition at 20 µM ([4]; Homo sapiens): 48.1%; IC50 (SK-HEP1 HCC cells; Homo sapiens, SK-HEP1, Table 4, ZX-J-19 derivatives, 48 h): 6.73 µM; inhibition at 20 µM ([5]; Homo sapiens, BT-474): 84%; inhibition at 20 µM ([6]; Homo sapiens, SK-OV-3): 48.1%; inhibition at 20 µM ([7]; Homo sapiens): 84.7%; inhibition at 20 µM ([8]; Homo sapiens): 84.7%; IC50 (QGY HCC cells; Homo sapiens, Table 4, ZX-J-19 derivatives, 48 h): 12.5 µM
10 | CC(C)(C)C(=O)Nc1ccc2nc(-c3ccco3)c(-c3ccco3)nc2c1 [ZX-J-19m] |  | 76.7 | 82.3 | 
11 | CCCC(=O)Nc1ccc2nc(-c3ccco3)c(-c3ccco3)nc2c1 [ZX-J-19n] |  | 17.7 | 18 | 
12 | O=C(Nc1ccc2nc(-c3ccco3)c(-c3ccco3)nc2c1)c1ccccc1Cl [ZX-J-19p] |  | 45.7 |  | 
13 | O=C(Nc1ccc2nc(-c3ccco3)c(-c3ccco3)nc2c1)c1ccc([N+](=O)[O-])cc1 [ZX-J-19q] |  | 43.6 | 44.3 | 
14 | O=C(Nc1ccc2nc(-c3ccco3)c(-c3ccco3)nc2c1)c1ccccc1 [ZX-J-19r] |  | 18.8 | 17.3 | 
15 | CC(=O)Nc1ccc2nc(-c3ccc[nH]3)c(-c3ccc[nH]3)nc2c1 [ZX-J-19u] |  | 14.2 | 32.7 | 
16 | O=C(CCl)Nc1ccc2nc(-c3ccc[nH]3)c(-c3ccc[nH]3)nc2c1 [ZX-J-19v] |  | 140 | 127 | 

Second part, led by results:

Row | Kd (CyPJ) [µM] | IC50 (SK-HEP1 HCC cells; [10]) [µM] | IC50 (QGY HCC cells; [10]) [µM] | Compound | also measured
17 | 14.5 |  |  | CCOC(=O)c1ccc(NC(=O)c2cc(-c3ccc(C)c(C)c3)nc3ccccc23)cc1 [ZX-J-8] | IC50 (CyPJ PPIase): 10.3 ± 0.442 µM
18 | 1.29 |  |  | COc1ccc(NC(=O)c2ccc(COc3ccccc3Br)o2)c(OC)c1 [ZX-J-9] | IC50 (CyPJ PPIase): 8.54 ± 0.965 µM
19 | 0.8 |  |  | COc1ccc(CCNC(=O)c2ccc(C(=O)NCCc3ccc(OC)c(OC)c3)nc2)cc1OC [ZX-J-10] | Compound IC50 for PPIase (CyPJ PPIase): no inhibition
20 | 118 |  |  | CCCCOc1cccc(-c2cc(C(=O)Nc3ccc4c(c3)OCCO4)c3ccccc3n2)c1 [ZX-J-12] | IC50 (CyPJ PPIase): 12.95 ± 0.054 µM
21 | 0.516 |  |  | CC(C)OC(=O)c1ccc(NC(=O)c2ccc(COc3ccccc3Cl)o2)cc1 [ZX-J-13] | IC50 (CyPJ PPIase): 12.63 ± 0.068 µM
22 | 0.661 |  |  | COc1cc(NC(=O)COc2ccc3ccccc3c2)ccc1NC(=O)c1cc2ccccc2o1 [ZX-J-15] | Compound IC50 for PPIase (CyPJ PPIase): no inhibition
23 | 0.242 |  |  | Cc1cc(NC(=O)C(=O)NCCN2CCN(C(=O)c3ccccc3F)CC2)ccc1Br [ZX-J-18] | Compound IC50 for PPIase (CyPJ PPIase): no inhibition
24 |  |  | 37.6 | O=C(Nc1ccc2nc(-c3ccccc3)c(-c3ccccc3)nc2c1)c1ccc([N+](=O)[O-])cc1 [ZX-J-19c] | 
25 |  | 11.3 | 17.9 | O=C(CCl)Nc1ccc2nc(-c3ccccc3)c(-c3ccccc3)nc2c1 [ZX-J-19d] | 
26 |  | 7.5 | 12.3 | O=C(Nc1ccc2nc(-c3ccccc3)c(-c3ccccc3)nc2c1)c1cccc(Cl)c1 [ZX-J-19e] | 
27 |  | 40.8 |  | CCC(=O)Nc1ccc2nc(-c3ccccc3)c(-c3ccccc3)nc2c1 [ZX-J-19i] | 
28 |  | 7.53 | 199 | CC(=O)Nc1ccc2nc(-c3ccccc3)c(-c3ccccc3)nc2c1 [ZX-J-19k] | 
29 |  | 3.51 | 21.4 | CCCC(=O)Nc1ccc2nc(-c3ccccc3)c(-c3ccccc3)nc2c1 [ZX-J-19l] | % Growth inhibition at 20 μM [3]: 91.258%; % Growth inhibition at 20 μM [4]: 91.038%; % Growth inhibition at 20 μM [5]: 90.963%; % Growth inhibition at 20 μM [6]: 90.919%; % Growth inhibition at 20 μM [7]: 91.039%; % Growth inhibition at 20 μM [8]: 90.849%
30 |  | 17.3 | 98.4 | CCCCCCCC(=O)Nc1ccc2nc(-c3ccco3)c(-c3ccco3)nc2c1 [ZX-J-19o] | 
31 |  | 46.3 | 42.5 | O=C(Nc1ccc2nc(-c3ccc[nH]3)c(-c3ccc[nH]3)nc2c1)c1ccc(Cl)cc1 [ZX-J-19t] | 
